The nature of this series: Serum stability test. The format is in vitro ADME. To be noted: human, diluted human serum (25%).

The record followed here is article PMC4174996 (Journal of Medicinal Chemistry, 2014).

For `CC[C@H](C)[C@H](NC(=O)[C@@H](NC(=O)[C@@H]1CCCN1C(=O)[C@H](Cc1c[nH]cn1)NC(=O)[C@@H]1CCCN1C(=O)CN)C(C)C)C(=O)N[C@H](C(=O)N[C@H](C(=O)N[C@H](C(=O)NCC(=O)N1CCC[C@H]1C(=O)N[C@@H](Cc1c[nH]cn1)C(=O)N[C@@H](CCC(=O)O)C(=O)N[C@@H](CCC(=O)O)C(N)=O)[C@@H](C)O)[C@@H](C)CC)C(C)C` [VIVIT], the half-life at 50 µM is approximately 1 h.
